Results from paper PMC9024523, “Phenoxyaromatic Acid Analogues as Novel Radiotherapy Sensitizers: Design, Synthesis and Biological Evaluation” (Molecules, 2022).
Several values for one entry are separate records, joined by “and”; a condition that tells them apart may be missing. Identical values can stand only once. Entries after “also recorded” stand apart in the source; their conditions may differ. Like-named read-outs stand apart in the source and are kept apart here.

Experiments:
mouse red blood cells [1] = experiment: In vitro red blood cell-based assay (oxygen equilibrium curve, Softron analyzer)
mouse red blood cells [2] = experiment: as above; conditions: final effector concentration 2 mM, mean ± SD
Excerpt: In the first stage of our research, three series of analogues were designed and synthesized to explore refinement of the hydrophobic parts of 19f, 19m, 24a and 24b; hinge areas of 18g, 19b and 19y; and tail regions of 15c, 15d and 16c, respectively. We used the Softron Analyzer to evaluate the effect of these compounds on the half-blood oxygen saturation(P50) value of red blood cells. The most promising phenoxyaromatic acid compound, efaproxiral, was used as a positive control. […] The results reminded us that the modification of the hydrophobic part or linker extension is beneficial to improve an allosteric effect.
Eight-week-old female C57BL6J mice were purchased from Beijing Vital River Laboratory Animal Technology Co., Ltd. A total of 540 μL mouse blood was added into the 1.5 mL centrifuge tube, followed by adding 60 μL 3.8% sodium citrate. The mixture was then centrifuged at 1500 rpm for 10 min, the supernatant was carefully aspirated, and the cells were washed three times with PBS solution. After mixing packed red blood cells with Alsever’s solution in a ratio of 1:1, a blood gas analyzer (RADIOMETER ABL 90) was used to analyze the red blood cell density and hemoglobin concentration.
All of the compounds were prepared as 200 mM stock solutions in DMSO. Oxygen equilibrium measurements were performed with the Softron analyzer (Softron Medical Products, Beijing, China) using mouse red blood cells. The samples were prepared by adding 3 mg hemoglobin equivalent of red blood cells into 3.92 mL loading buffer (100 mM NaCl, 50 mM bis-Tris at pH 7.2 and 25 °C), followed by 20 μL 10% Dimethicone as a defoamer and 20 μL 20% BSA. Afterwards, 40 μL stock solution was added, and the mixture was loaded to the sample cell and fully deoxygenated by blowing into nitrogen at 37 °C for 15 min. Then, the oxygen equilibrium curve was recorded by blowing into oxygen.

[3] = Pharmacokinetic study in rats; assay type: in vivo; conditions: rat; for AUC(0-inf) / AUC(0-t) / Cmax / Tmax / half-life / MRT inf: male, Sprague-Dawley, plasma; for MRT inf: read-out: MRTInf_obs; for AUC_%Extrap_obs: (AUCinf−AUClast)/AUCinf
Protocol: Based on the potential radiosensitization effects in vivo, we performed an in vivo pharmacokinetic (PK) study to preliminarily evaluate the druggability of 19c at a dosage of 100 mg/kg by intraperitoneal injection (ip) or oral administration (po).
The pharmacokinetic experiments with 19c in rats were performed by Beijing Pharmaron, Inc. All animals were maintained in the pathogen-free barrier animal facility, and the experiments were approved by the Animal Care and Use Committee of the company. The drug solution was formulated into a 10 mg/mL solution with normal saline on the day of administration. After a single dose of 19c (100 mg/kg) by intraperitoneal injection (ip) or oral administration (po) in male Sprague-Dawley rats (n = 3), blood samples were collected 0.25, 0.5, 1, 2, 4, 6, 8 and 24 h post dose and centrifuged at 4000× g for 5 min at 4 °C to obtain plasma. The plasma was diluted 3 times with water. A measure of 2 µL of diluted supernatant was injected into the LC/MS/MS system for quantitative analysis. […] The Phoenix WinNonlin 8.0 software was applied for the calculation of pharmacokinetic parameters.

HEK293 cells = experiment: Cell Titer-Glo cytotoxicity assay, HEK293; assay type: cell-based
Protocol: (§1) For further in vivo evaluation of newly synthesized compounds, 19c and 19t were selected as candidates. Hemoglobin allosteric effectors require a relatively high blood concentration to be effective. Cytotoxicity evaluation was conducted out of consideration for medication safety. HEK293 and U87MG cells were used to evaluate the cytotoxicity.
(§2) Luciferase-transfected human glioma cells (U87-luc) and HEK293 cells were kindly provided by Dr. Nie and cultured in Dulbecco’s Modified Eagle Medium (CM10013, MacGene) with 10% fetal bovine serum (1966173C, Gibco) and 1% penicillin-streptomycin in a humidified atmosphere of 5% CO2 at 37 °C.
(§3) Cells were plated in a 96-well plate at a density of 2000 cells/well and then treated with 19c or 19t at gradient concentrations of 10^1, 10^2, 10^3, 10^4, 10^5, 10^6and 10^7 nM. Compounds 19c and 19t were prepared as the sodium salt by adding saturated sodium bicarbonate in the process of stock solution preparation. Cell viability was evaluated on the indicated days after treatment with a Cell Titer-Glo Luminescent Cell Viability Assay kit (G7572, Promega, Madison, WI, USA) according to the manufacturer’s instructions. All data were normalized to those on day 0 and presented as the mean ± standard deviation (SD).

U87MG cells = experiment: Cell Titer-Glo cytotoxicity assay, U87MG; assay type: cell-based, human
Protocol: as §1, §2, §3

[4] = test system: luciferase-labeled U87MG implanted into Balb/c nude mice brains; experiment: In vivo radiosensitization on orthotopically transplanted GB; design: species or system mouse
Protocol: In order to evaluate in vivo antitumor effects, luciferase-labeled U87MG was implanted into Balb/c nude mice brains. A small animal bioluminescence imaging system was applied to trace the tumor formation and dynamic changes in GB size. Cobalt 60 was used for fractionated-dose whole-brain irradiation therapy (IR). The tumor was irradiated with a total dose of 12 Gy in four fractions of 3 Gy at a dose rate of 0.3 Gy/min. Efaproxiral or 19c was administrated at a dosage of 150 mg/kg by intraperitoneal injection (ip) every four days over a period of sixteen days. IR was conducted 15 min after ip.
Four-week-old female BALB/c nude mice were purchased from Beijing Vital River Laboratory Animal Technology Co., Ltd. Animals were monitored daily by certified veterinary staff and laboratory personnel. All mice used in this study were maintained in a pathogen-free barrier animal facility. The study was in compliance with all relevant ethical regulations regarding animal research. All animal experiments were approved by the Institutional Animal Care and Use Committee at the Beijing Institute of Basic Medical Sciences. The U87-luc cells were processed and resuspended into basal medium at a concentration of 10^7 cells/mL. Next, 8 × 10^5 U87-luc glioma cells were implanted into the right frontal lobes of each nude mouse. Ten days after tumor implantation, tumor-bearing mice were randomly divided into six groups according to the tumor size and subjected to the indicated treatment (n = 6). Administration of drugs (150mg/kg) or vehicle was performed once every 4 days four consecutive times by intraperitoneal injection. All radiation treatments were performed 25 min after the drug or vehicle was given. Tumors on the brains of mice were irradiated at a dosage of 3 Gy four consecutive times using a ^60Co γ irradiator. The dose rate was 0.3 Gy/min. The bodies of the mice were shielded using lead blocks. The tumor progress was tracked by a small animal live bioluminescence imaging system (LB983NC100U, Germany).

Cc1cc(C)cc(NC(=O)CCc2ccc(OC(C)(C)C(=O)O)cc2)c1 [19c, 2-(4-(3-((3,5-dimethylphenyl)amino)-3-oxopropyl)phenoxy)-2-methylpropanoic acid]
influence on the Bohr effect of red blood cells (mouse red blood cells [1]; 2 mM, change in acidity, OEC shift): will not offset the Bohr effect; also recorded: preserved the Bohr effect | dose–response relationship of oxygen affinity of hemoglobin (mouse red blood cells [1]; different concentrations, oxygen dissociation curve): dose-dependently altered the oxygen affinity of hemoglobin; also recorded: exerts an allosteric effect on hemoglobin at a micromolar level | P50/P50C (mouse red blood cells [2]; P50C = control with 1% DMSO): 2.04 ± 0.04 | P50 (mouse red blood cells [2]; 1% DMSO, mouse red blood cells): 89.16 ± 5.20 mmHg | ∆P50 (mouse red blood cells [2]; ∆P50 = P50 − P50C, mouse red blood cells): 45.50 mmHg and 45.50 ± 1.73 mmHg | AUC(0-inf) ([3]; ip 100 mg/kg): 612 µg·h/mL | AUC(0-t) ([3]; ip 100 mg/kg, saline): 612 µg·h/mL | Cmax ([3]; ip 100 mg/kg, saline): 202 µg/mL | Tmax ([3]; ip 100 mg/kg, saline): 0.25 h | half-life ([3]; ip 100 mg/kg, saline): 2.55 h | MRT inf ([3]; ip 100 mg/kg, saline): 2.32 h | AUC(0-inf) ([3]; po 100 mg/kg, saline): 411 µg·h/mL | AUC(0-t) ([3]; po 100 mg/kg, saline): 410 µg·h/mL | Cmax ([3]; po 100 mg/kg, saline): 111 µg/mL | Tmax ([3]; po 100 mg/kg, saline): 2 h | half-life ([3]; po 100 mg/kg, saline): 2.78 h | MRT inf ([3]; po 100 mg/kg, saline): 2.58 h | oral availability [3]: orally available | AUCinf ([3]; ip 100 mg/kg, saline): 612,428 h*ng/mL | AUC_%Extrap_obs ([3]; ip 100 mg/kg): 0.0362% | AUClast/D ([3]; ip 100 mg/kg): 6122 | AUC_%Extrap_obs ([3]; po 100 mg/kg): 0.0522% | AUClast/D ([3]; po 100 mg/kg): 4104 | clinical symptoms during the PK experiment ([3]; single dose 100 mg/kg ip or po): No abnormal clinical symptoms | cytotoxicity (summary statement) (HEK293 cells; HEK293 (normal) cells): no cytotoxicity | cytotoxicity (HEK293 cells; HEK293 cells, concentration of 5 mM): no cytotoxic effect | cytotoxicity (summary statement) (U87MG cells; U87MG (glioma) cells): no cytotoxicity | cytotoxicity (U87MG cells; U87MG cells, concentration of 5 mM): no cytotoxic effect | overall survival time of tumor-bearing mice compared to vehicle control ([4]; 150 mg/kg ip combined with IR): could improve the overall survival time | radiosensitization effect in vivo (summary statement) ([4]; orthotopically transplanted GB in mouse brains): exhibited a radiosensitization effect; also recorded: effective GB radiosensitizer
